Reference: PubChem BioAssay (NCI)
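Test compounds were applied to cells in 96-well plates for 48 hours at 5 doses. GI50: concentration for 50% inhibition of growth. TGI marks complete inhibition of growth.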

Tests used:
Experiment in all cases: NCI tumour cell line growth inhibition, 48 h
SNB-19 CNS = system: SNB-19 CNS
UACC-62 melanoma = system: UACC-62 melanoma
NCI/ADR-RES ovarian = system: NCI/ADR-RES ovarian
U251 CNS = system: U251 CNS
OVCAR-8 ovarian = system: OVCAR-8 ovarian
EKVX NSCLC = system: EKVX NSCLC
OVCAR-5 ovarian = system: OVCAR-5 ovarian
HOP-92 NSCLC = system: HOP-92 NSCLC
SK-MEL-2 melanoma = system: SK-MEL-2 melanoma
KM12 colon = system: KM12 colon
SK-MEL-5 melanoma = system: SK-MEL-5 melanoma
CAKI-1 renal = system: CAKI-1 renal
OVCAR-3 ovarian = system: OVCAR-3 ovarian
NCI-H460 lung = system: NCI-H460 lung
SW-620 colon = system: SW-620 colon
UO-31 renal = system: UO-31 renal
A549 NSCLC = system: A549 NSCLC
SF-295 CNS = system: SF-295 CNS
COLO 205 colon = system: COLO 205 colon
HS 578T breast = system: HS 578T breast
HOP-62 NSCLC = system: HOP-62 NSCLC
IGROV1 ovarian = system: IGROV1 ovarian
SN12C renal = system: SN12C renal
MDA-MB-435 = system: MDA-MB-435
HCT-15 colon = system: HCT-15 colon
K-562 leukemia = system: K-562 leukemia
NCI-H522 lung = system: NCI-H522 lung
SK-OV-3 ovarian = system: SK-OV-3 ovarian
HCT-116 colon = system: HCT-116 colon
SNB-75 CNS = system: SNB-75 CNS
HCC-2998 colon = system: HCC-2998 colon
SK-MEL-28 melanoma = system: SK-MEL-28 melanoma
LOX IMVI melanoma = system: LOX IMVI melanoma
RPMI-8226 leukemia = system: RPMI-8226 leukemia
TK-10 renal = system: TK-10 renal
ACHN renal = system: ACHN renal
786-0 renal = system: 786-0 renal
OVCAR-4 ovarian = system: OVCAR-4 ovarian
PC-3 prostate = system: PC-3 prostate
RXF 393 renal = system: RXF 393 renal
M14 melanoma = system: M14 melanoma
DU-145 prostate = system: DU-145 prostate
MDA-MB-231 breast = system: MDA-MB-231 breast
BT-549 breast = system: BT-549 breast
CCRF-CEM leukemia = system: CCRF-CEM leukemia
MALME-3M melanoma = system: MALME-3M melanoma
A498 renal = system: A498 renal
SF-268 CNS = system: SF-268 CNS
SR leukemia = system: SR leukemia
MCF7 breast = system: MCF7 breast
SF-539 CNS = system: SF-539 CNS
UACC-257 melanoma = system: UACC-257 melanoma
NCI-H226 lung = system: NCI-H226 lung
HL-60(TB) leukemia = system: HL-60(TB) leukemia
MOLT-4 leukemia = system: MOLT-4 leukemia
NCI-H23 lung = system: NCI-H23 lung

What does the source list for COc1cc2c(c(OC)c1OC)-c1ncc3c(OC)c(OC)c(OC)cc3c1C2?
GI50 (SNB-19 CNS): 40.1 µM; TGI (SNB-19 CNS): > 100 µM; GI50 (UACC-62 melanoma): 21.1 µM; TGI (UACC-62 melanoma): 49.3 µM; GI50 (NCI/ADR-RES ovarian): 15.6 µM; TGI (NCI/ADR-RES ovarian): 38 µM; GI50 (U251 CNS): 36.9 µM; TGI (U251 CNS): > 100 µM; GI50 (OVCAR-8 ovarian): 18.9 µM; TGI (OVCAR-8 ovarian): 58.2 µM; GI50 (EKVX NSCLC): 32.7 µM; TGI (EKVX NSCLC): > 100 µM; GI50 (OVCAR-5 ovarian): 17.4 µM; TGI (OVCAR-5 ovarian): 77.9 µM; GI50 (HOP-92 NSCLC): 52.1 µM; TGI (HOP-92 NSCLC): > 100 µM; GI50 (SK-MEL-2 melanoma): 30.8 µM; TGI (SK-MEL-2 melanoma): 74.4 µM; GI50 (KM12 colon): 16.1 µM; TGI (KM12 colon): 40.4 µM; GI50 (SK-MEL-5 melanoma): 16 µM; TGI (SK-MEL-5 melanoma): 30.5 µM; GI50 (CAKI-1 renal): 23.9 µM; TGI (CAKI-1 renal): 83.5 µM; GI50 (OVCAR-3 ovarian): 21.5 µM; TGI (OVCAR-3 ovarian): 50.9 µM; GI50 (NCI-H460 lung): 32.6 µM; TGI (NCI-H460 lung): > 100 µM; GI50 (SW-620 colon): 37 µM; TGI (SW-620 colon): > 100 µM; GI50 (UO-31 renal): 18 µM; TGI (UO-31 renal): 47.2 µM; GI50 (A549 NSCLC): 27.7 µM; TGI (A549 NSCLC): > 100 µM; GI50 (SF-295 CNS): 22 µM; TGI (SF-295 CNS): 47.1 µM; GI50 (COLO 205 colon): 19.9 µM; TGI (COLO 205 colon): 38.2 µM; GI50 (HS 578T breast): 29.9 µM; TGI (HS 578T breast): 67.3 µM; GI50 (HOP-62 NSCLC): 28.5 µM; TGI (HOP-62 NSCLC): 86 µM; GI50 (IGROV1 ovarian): 34.1 µM; TGI (IGROV1 ovarian): 93 µM; GI50 (SN12C renal): 20.3 µM; TGI (SN12C renal): 64.8 µM; GI50 (MDA-MB-435): 23 µM; TGI (MDA-MB-435): 73.5 µM; GI50 (HCT-15 colon): 28.6 µM; TGI (HCT-15 colon): > 100 µM; GI50 (K-562 leukemia): 19.2 µM; TGI (K-562 leukemia): 50.3 µM; GI50 (NCI-H522 lung): 19.3 µM; TGI (NCI-H522 lung): 48.3 µM; GI50 (SK-OV-3 ovarian): 29.5 µM; TGI (SK-OV-3 ovarian): 74.9 µM; GI50 (HCT-116 colon): 27.8 µM; TGI (HCT-116 colon): > 100 µM; GI50 (SNB-75 CNS): > 100 µM; TGI (SNB-75 CNS): > 100 µM; GI50 (HCC-2998 colon): 16.1 µM; TGI (HCC-2998 colon): 30.7 µM; GI50 (SK-MEL-28 melanoma): 34.9 µM; TGI (SK-MEL-28 melanoma): > 100 µM; GI50 (LOX IMVI melanoma): 16.2 µM; TGI (LOX IMVI melanoma): 32.3 µM; GI50 (RPMI-8226 leukemia): 19 µM; TGI (RPMI-8226 leukemia): 54.9 µM; GI50 (TK-10 renal): 22.5 µM; TGI (TK-10 renal): 63.5 µM; GI50 (ACHN renal): 31.2 µM; TGI (ACHN renal): > 100 µM; GI50 (786-0 renal): 36.5 µM; TGI (786-0 renal): > 100 µM; GI50 (OVCAR-4 ovarian): 49.6 µM; TGI (OVCAR-4 ovarian): > 100 µM; GI50 (PC-3 prostate): 33.7 µM; TGI (PC-3 prostate): > 100 µM; GI50 (RXF 393 renal): 25.2 µM; TGI (RXF 393 renal): 83.2 µM; GI50 (M14 melanoma): 39.8 µM; TGI (M14 melanoma): > 100 µM; GI50 (DU-145 prostate): 29.6 µM; TGI (DU-145 prostate): > 100 µM; GI50 (MDA-MB-231 breast): 26.2 µM; TGI (MDA-MB-231 breast): 86.8 µM; GI50 (BT-549 breast): 25.4 µM; TGI (BT-549 breast): 55.2 µM

What does the source list for COc1ccc2cc(/C=C/C(=O)c3ccc(Cl)cc3Cl)ccc2c1?
GI50 (CCRF-CEM leukemia): 21 µM; TGI (CCRF-CEM leukemia): 57.2 µM; GI50 (UACC-62 melanoma): 21.6 µM; TGI (UACC-62 melanoma): 79.4 µM; GI50 (NCI/ADR-RES ovarian): 31 µM; TGI (NCI/ADR-RES ovarian): 96.5 µM; GI50 (U251 CNS): 27.9 µM; TGI (U251 CNS): > 100 µM; GI50 (OVCAR-8 ovarian): 26.6 µM; TGI (OVCAR-8 ovarian): 75.4 µM; GI50 (EKVX NSCLC): 41.7 µM; TGI (EKVX NSCLC): > 100 µM; GI50 (OVCAR-5 ovarian): 45.7 µM; TGI (OVCAR-5 ovarian): > 100 µM; GI50 (MALME-3M melanoma): 27 µM; TGI (MALME-3M melanoma): 73.9 µM; GI50 (HOP-92 NSCLC): 97.7 µM; TGI (HOP-92 NSCLC): > 100 µM; GI50 (SK-MEL-2 melanoma): 24 µM; TGI (SK-MEL-2 melanoma): 69.9 µM; GI50 (KM12 colon): 29 µM; TGI (KM12 colon): 85.4 µM; GI50 (SK-MEL-5 melanoma): 20.9 µM; TGI (SK-MEL-5 melanoma): 45.2 µM; GI50 (CAKI-1 renal): 42.7 µM; TGI (CAKI-1 renal): 89.1 µM; GI50 (OVCAR-3 ovarian): 26.2 µM; TGI (OVCAR-3 ovarian): > 100 µM; GI50 (A498 renal): 28.8 µM; TGI (A498 renal): 58.9 µM; GI50 (NCI-H460 lung): 27.4 µM; TGI (NCI-H460 lung): > 100 µM; GI50 (SW-620 colon): 24.1 µM; TGI (SW-620 colon): 67 µM; GI50 (UO-31 renal): 36.6 µM; TGI (UO-31 renal): > 100 µM; GI50 (A549 NSCLC): 26 µM; TGI (A549 NSCLC): > 100 µM; GI50 (SF-295 CNS): 83.3 µM; TGI (SF-295 CNS): > 100 µM; GI50 (SF-268 CNS): 32.9 µM; TGI (SF-268 CNS): > 100 µM; GI50 (SR leukemia): 9.19 µM; TGI (SR leukemia): 28.7 µM; GI50 (MCF7 breast): 4.83 µM; TGI (MCF7 breast): 43.4 µM; GI50 (HS 578T breast): 39.3 µM; TGI (HS 578T breast): > 100 µM; GI50 (HOP-62 NSCLC): 39.3 µM; TGI (HOP-62 NSCLC): > 100 µM; GI50 (IGROV1 ovarian): 42.9 µM; TGI (IGROV1 ovarian): > 100 µM; GI50 (SN12C renal): 20.3 µM; TGI (SN12C renal): 50.9 µM; GI50 (SF-539 CNS): 72.9 µM; TGI (SF-539 CNS): > 100 µM; GI50 (MDA-MB-435): 25.4 µM; TGI (MDA-MB-435): 75.3 µM; GI50 (HCT-15 colon): 31 µM; TGI (HCT-15 colon): > 100 µM; GI50 (K-562 leukemia): 20.5 µM; TGI (K-562 leukemia): 68.8 µM; GI50 (NCI-H522 lung): 21.6 µM; TGI (NCI-H522 lung): > 100 µM; GI50 (UACC-257 melanoma): 39.5 µM; TGI (UACC-257 melanoma): > 100 µM; GI50 (HCT-116 colon): 16.9 µM; TGI (HCT-116 colon): 46 µM; GI50 (HCC-2998 colon): 20.6 µM; TGI (HCC-2998 colon): 48.8 µM; GI50 (NCI-H226 lung): 30.4 µM; TGI (NCI-H226 lung): > 100 µM; GI50 (HL-60(TB) leukemia): 17.5 µM; TGI (HL-60(TB) leukemia): 41 µM; GI50 (LOX IMVI melanoma): 24.1 µM; TGI (LOX IMVI melanoma): 60.4 µM; GI50 (RPMI-8226 leukemia): 16.2 µM; TGI (RPMI-8226 leukemia): 47.2 µM; GI50 (TK-10 renal): 77.9 µM; TGI (TK-10 renal): > 100 µM; GI50 (ACHN renal): 35.4 µM; TGI (ACHN renal): > 100 µM; GI50 (786-0 renal): 36.7 µM; TGI (786-0 renal): > 100 µM; GI50 (OVCAR-4 ovarian): 74.1 µM; TGI (OVCAR-4 ovarian): > 100 µM; GI50 (PC-3 prostate): 44.7 µM; TGI (PC-3 prostate): > 100 µM; GI50 (RXF 393 renal): 20.4 µM; TGI (RXF 393 renal): 65.6 µM; GI50 (M14 melanoma): 30.5 µM; TGI (M14 melanoma): > 100 µM; GI50 (DU-145 prostate): 32.6 µM; TGI (DU-145 prostate): > 100 µM; GI50 (MOLT-4 leukemia): 11.3 µM; TGI (MOLT-4 leukemia): 35.5 µM; GI50 (MDA-MB-231 breast): 27.3 µM; TGI (MDA-MB-231 breast): > 100 µM; GI50 (NCI-H23 lung): 47 µM; TGI (NCI-H23 lung): > 100 µM; GI50 (BT-549 breast): 33 µM; TGI (BT-549 breast): 96.7 µM
